Converted amounts (≈) assume the structure as drawn. Read-outs that look alike come from different tables or passages of the source. Where a SMILES comes first, the peptide text is derived from it. Where no end group is shown, it is not given here. [ ]: non-standard residue; d: D form. The star is where a group is joined. Decanoyl = CCCCCCCCCC(=O)*
What was measured:
S. aureus ATCC 25923 = format: cell-based, Staphylococcus aureus
Protocol: (§1) The test was conducted in triplicate.

E. coli ATCC 35218 = format: cell-based, Escherichia coli; conditions: ATCC 35218, 24 h
Protocol: as §1

trypsin = conditions: after 7 h of treatment
Protocol: (§7) The enzymatic stability of the peptides and lipopeptides was determined by measuring residual antimicrobial activity using the agar diffusion method [42]. To this end, 60 µL of the peptide (treated and untreated) in phosphate buffer (0.1 mM pH: 5.5) was added to a 7 mm well on an agar plate previously seeded with 1 mL of a fresh culture of S. aureus ATCC 25923. The plates were incubated for between 18 and 24 h at 37 °C, and then the inhibition halo diameter was measured. The test was conducted in duplicate.

[1] = tested on: S. aureus RM * SA1 (Methicillin-resistant Staphylococcus aureus); conditions: S. aureus RM * SA1 (MRSA)
Gram (+) bacteria = conditions: for MIC Average Bacteria Gram (+): average over Gram (+) strains; for TI Bacteria Gram (+), HC50/MIC average: first value of the cell, a single value holds for HC50 and IC50 (400 µM used); for TI Bacteria Gram (+), IC50/MIC average: second value of the cell, HeLa IC50 based
Protocol: (§2) The MIC against bacterial strains was determined by the modified broth microtiter dilution method, following the procedures proposed by R.E.W. Hancock Laboratory for testing antimicrobial peptides. The target strains Escherichia coli ATCC 35218, Pseudomonas aeruginosa ATCC 27853, Enterococcus faecalis ATCC 29212, and Staphylococcus aureus ATCC 25923 belong to the American Type Culture Collection (ATCC). The Methicillin-Resistant Staphylococcus aureus BSF FBCB1313 strain (MRSA) was provided by the Clinical Bacteriology Section of FBCB-UNL. All strains were activated by culture for 24 h at 37 °C in Mueller-Hinton Broth (MHB) (Biokar Diagnostics, Cedex, France). Each inoculum was taken and adjusted to a cellular concentration of 5 × 10^5 colony-forming units (CFU)/mL in diluted MHB. All the peptides were dissolved in bovine serum albumin buffer with the addition of 0.01% acetic acid; 100 µL of each inoculum was added to 11 µL of peptide solution in serial 2-fold dilutions and were incubated for 18–24 h at 37 °C. The MIC was the lowest peptide concentration that inhibited visible growth of each bacterial strain. The test was conducted in triplicate.
(§3) The TI is defined as the relationship between the concentration that caused 50% of hemolysis (HC50) or a 50% reduction in HeLa cell viability and the MIC. Thus, higher TI values indicate greater antimicrobial specificity. […] The average MIC for each peptide against different microorganism groups was used to calculate the TI value.

Gram (−) bacteria = conditions: for MIC Average Bacteria Gram (−): average over Gram (−) strains; for TI Bacteria Gram (−), HC50/MIC average: first value of the cell, a single value holds for HC50 and IC50 (400 µM used); for TI Bacteria Gram (−), IC50/MIC average: second value of the cell, HeLa IC50 based
Protocol: as §2, §3

P. aeruginosa ATCC 27853 = format: cell-based, Pseudomonas aeruginosa; conditions: ATCC 27853, 24 h
Protocol: as §1

E. faecalis ATCC 29212 = format: cell-based, Enterococcus faecalis
Protocol: as §1

C. albicans PEEC 2 = format: cell-based, Candida albicans; conditions: PEEC 2, 24 h
Protocol: (§4) Each inoculum was taken and the cellular concentration was adjusted to 2 × 10^3 CFU/mL in Sabouraud Dextrose Broth (SDB) (Biokar Diagnostics, Cedex, France). Next, 50 µL of these inocula was added to 50 µL of peptide solution in serial 2-fold dilutions. […] […] The test was conducted in triplicate.

HeLa cells = conditions: for IC50: 24 h
Protocol: We assessed the cytotoxicity of the compounds synthesized using HeLa cells.
The 3–4,5-dimethylthiazol-2,5-biphenyl tetrazolium bromide (MTT) cell viability assay was used to assess the cytotoxic activity of synthetic compounds against the human HeLa line. HeLa cells were seeded in 96-well plates at 1 × 10^5 cells/well, in which the peptide solution was added at different concentrations (3.125–400 μM) for 24 h of incubation. Next, MTT reagent (Sigma-Aldrich, St. Louis, MO, USA) was added, and the cells were incubated for 2 h. Then, 100 μL of dimethylsulfoxide (DMSO) was added to each well to dissolve formazan crystals, and the plates were read at 595 nm.

Yeast [2] = conditions: for MIC Average Yeast: 24 h; for TI Yeast, HC50/MIC average: first value of the cell, a single value holds for HC50 and IC50 (400 µM used); for TI Yeast, IC50/MIC average: second value of the cell, HeLa IC50 based
Protocol: Each inoculum was taken and the cellular concentration was adjusted to 2 × 10^3 CFU/mL in Sabouraud Dextrose Broth (SDB) (Biokar Diagnostics, Cedex, France). Next, 50 µL of these inocula was added to 50 µL of peptide solution in serial 2-fold dilutions. […] The MIC was considered the lowest peptide concentration that inhibited visible growth of each yeast strain. The test was conducted in triplicate.
as §3

C. tropicalis DBFIQ 3 = format: cell-based, Candida tropicalis; conditions: DBFIQ 3, 24 h
Protocol: as §4

Human erythrocytes = assay: Hemolysis assay; format: cell-based; conditions: human erythrocytes 0.4% (v/v), 37 °C, 60 min, 6.25 to 400 µM
Protocol: (§5) Hemolytic activity was determined using red blood cells and the hemoglobin released was measured at 405 nm. The percentage of hemolysis corresponding to the synthetic compounds is shown in Figure 1 while the HC50 values are provided in Table 3. […] Substitutions by N-methyl and D-amino acids reduced the hemolytic activity of the peptides and lipopeptides. […] For all the peptides and most of the lipopeptides, the HC50 values exceeded 400 μM. Indeed, the HC50 values were lower only for C10:0-A2(9-NMeLys) and C10:0-A2, which were around 300 and 200 μM, respectively.
(§6) Erythrocyte lysis was determined using the following previously optimized protocols. Human erythrocytes from a healthy voluntary donor were isolated by centrifugation (3000 rpm for 10 min) after washing three times with Physiological Solution (PS). Erythrocyte solutions were prepared at a concentration of 0.4% (v/v) in PS. Test tubes containing 200 µL of erythrocyte solution were incubated at 37 °C for 60 min with 200 µL of peptide solution at concentrations ranging from 6.25 to 400 µM. After centrifugation at 3000 rpm for 5 min, supernatant absorbance was measured at 405 nm. Lysis induced by 1% Triton X-100 was taken as a 100% reference value.

Yeast [3] = conditions: cited from earlier work
[4] = at 200 μM; cited from earlier work
[5] = Critical micelle concentration by conductimetry in Milli-Q water; format: physicochemical; conditions: 25 °C
Protocol: On the other hand, acylation confers that the peptide has capacity to self-assemble into nanostructures, resulting in a surfactant-like structure, which may affect the extent of peptide insertion and disruption of bacterial membrane integrity. In this work, the CMC of the lipopeptides was determined by conductimetry in Milli-Q water. All the lipopeptides adopted a micellar assembly with CMC values ranging from 2.0 to 5.7 mM (Table 1). […] This effect appeared to be more important when substitution by an N-methyl amino acid was performed on amino acids located on the non-polar face of the amphipathic helix (CMC values of C10:0-A2(8-NMePhe) = 2.01 mM). For all the lipopeptides, the CMC values remained above the MIC values, which could indicate that these molecules interact with the cell membrane as monomers and, consequently, that this property would not be necessary for antimicrobial activity. This notion is in concordance with reports in the literature on short cationic lipopeptides.
A lipopeptide solution was prepared in Milli Q water, and the specific conductivity of each lipopeptide solution, in a concentration ranging from 0.06 to 18 mg/mL, was measured using a drop conductivity meter (HORIBA, Kyoto, Japan), at 25 °C. Conductivity values were plotted vs. lipopeptide concentration (mS × cm^−1 vs. mg/mL), and the CMC was graphically determined.

in vitro = conditions: human, 50% (v/v) human serum in phosphate buffer, pH 7.2
Protocol: A 50% (v/v) human serum solution in phosphate buffer (pH: 7.2) was added to the peptide solution (concentration: 2 mg/mL) and incubated for 8 h at 37 °C. Aliquots were taken at different time points (0, 30, 60, 120, 240, 360, and 480 min) and serum proteins were immediately precipitated with a mixture of ACN-water-TFA (89:10:1). They were kept at 4 °C for 45 min and then centrifuged for 15 min at 10,000 rpm. The supernatants were then analyzed by HPLC-RP using a C18 analytical column (Beckman, Indianapolis, IN, USA). A linear gradient from 5% to 50% of ACN in H2O containing 0.1% TFA was used, at a flow rate of 0.8 mL/min. Absorbance was measured at 220 nm. […] The test was conducted in duplicate.

Hemolysis assay = format: cell-based, human; conditions: human, erythrocytes (red blood cells); at higher concentrations (400 μM)
Protocol: as §5, §6

Protocol for chymotrypsin: as §7

Molecule | MIC (E. coli ATCC 35218) | MIC [1] | MIC Average Bacteria Gram (+) (Gram (+) bacteria) | TI Bacteria Gram (+), HC50/MIC average (Gram (+) bacteria) | MIC Average Bacteria Gram (−) (Gram (−) bacteria) | TI Bacteria Gram (−), HC50/MIC average (Gram (−) bacteria) | MIC (P. aeruginosa ATCC 27853) | MIC (C. albicans PEEC 2) | IC50 (HeLa cells) | MIC Average Yeast (Yeast [2]) | TI Yeast, HC50/MIC average (Yeast [2]) | MIC (C. tropicalis DBFIQ 3) | HC50 ± SD (Human erythrocytes) | MIC (S. aureus ATCC 25923; ATCC 25923, 24 h) | TI Bacteria Gram (+), IC50/MIC average (Gram (+) bacteria) | TI Bacteria Gram (−), IC50/MIC average (Gram (−) bacteria) | MIC (E. faecalis ATCC 29212; ATCC 29212, 24 h) | reduction of HeLa viability (HeLa cells; HeLa cells, MTT) | TI Yeast, IC50/MIC average (Yeast [2]) | hemolysis [4] | also measured
CCCCCCCCCC(=O)N[C@H](C(=O)N[C@H](CCCCN)C(=O)N[C@@H](CCC(N)=O)C(=O)N[C@H](C(=O)N[C@H](CCCCN)C(=O)N[C@H](CCCCN)C(=O)N[C@@H](CC(C)C)C(=O)N[C@@H](Cc1ccccc1)C(=O)N[C@H](CCCCN)C(=O)N[C@H](CCCCN)C(N)=O)C(C)C)[C@@H](C)CC [C10:0-A2(dK), C10:0-IdKQVdKdKLFdKdK-NH2] (Decanoyl-I[dK]QV[dK][dK]LF[dK][dK]-NH2) | 22.6 µM (≈ 31.9 µg/mL) | >90.6 µM | >90.6 µM | <4.4 | 12.1 µM (≈ 17.1 µg/mL) | 33.1 | 1.6 µM (≈ 2.26 µg/mL) | 90.6 µM (≈ 128 µg/mL) | > 400 µM | 135.9 µM (≈ 192 µg/mL) | 2.9 | 181.2 µM (≈ 256 µg/mL) | >400 µM | – | – | – | – | – | – | – | MIC (S. aureus ATCC 25923; S. aureus ATCC 25923): >90.6 µM; retained inhibition activity against S. aureus strain ATCC 25923 (trypsin): 80%; MIC (E. faecalis ATCC 29212; E. faecalis ATCC 29212): >90.6 µM; retained antimicrobial activity (chymotrypsin; after 3 h of treatment): 75%; residual antimicrobial activity (chymotrypsin; after more than 3 h of treatment, in words): total loss of activity
CCCCCCCCCC(=O)N[C@H](C(=O)N[C@@H](CCCCN)C(=O)N[C@@H](CCC(N)=O)C(=O)N[C@H](C(=O)N[C@@H](CCCCN)C(=O)N[C@@H](CCCCN)C(=O)N[C@@H](CC(C)C)C(=O)N[C@@H](Cc1ccccc1)C(=O)N[C@@H](CCCCN)C(=O)N[C@@H](CCCCN)C(N)=O)C(C)C)[C@@H](C)CC [C10:0-A2, C10:0-IKQVKKLFKK-NH2] (Decanoyl-IKQVKKLFKK-NH2) | 1.4 µM (≈ 1.98 µg/mL) | 2.8 µM (≈ 3.96 µg/mL) | 1.9 µM (≈ 2.68 µg/mL) | 106.8 | 1.4 µM (≈ 1.98 µg/mL) | 144.9 | 1.4 µM (≈ 1.98 µg/mL) | 90.6 µM (≈ 128 µg/mL) | 32.6 ± 2.49 µM | 90.6 µM (≈ 128 µg/mL) | 2.2 | 90.6 µM (≈ 128 µg/mL) | 202.9 ± 17.5 µM | 1.4 µM (≈ 1.98 µg/mL) | 17.2 | 23.3 | 1.4 µM (≈ 1.98 µg/mL) | more than 60% | 0.4 | around 50% | MIC (Yeast [3]; yeast): 90.6 µM (≈ 128 µg/mL); CMC [5]: 5.74 mM; remaining at 1 h (in vitro): ~20%; hemolysis at 60 min, 400 µM (Hemolysis assay): ~45%
KLFKKLFKKLFK-NH2 [TA4, KLFKKLFKKLFK-NH2] | 5.1 µM | 10.2 µM | 6.0 µM | 66.7 | 3.9 µM | 102.6 | 2.6 µM | 40.8 µM | 46.4 ± 10.1 µM | 40.8 µM | 9.8 | 40.8 µM | >400 µM | 2.6 µM | 7.7 | 11.9 | 5.1 µM | more than 60% | 1.1 | around 40% | MIC (Yeast [3]; against yeast): 40.8 µM; IC50 (HeLa cells; read-out: IC50 ± SD, HeLa cells, MTT, 3.125–400 μM): 46 µM; remaining at 1 h (in vitro): ~40%; hemolysis at 60 min, 400 µM (Hemolysis assay): ~65%

From publication PMC10215143, “D- and N-Methyl Amino Acids for Modulating the Therapeutic Properties of Antimicrobial Peptides and Lipopeptides” (Antibiotics, 2023)
